In ChEMBL document CHEMBL1909046, “DrugMatrix in vitro pharmacology data” one finds IC50 data, which are given here for three compounds.

Some targets named below: Cytochrome P450 2C9 (Homo sapiens, UniProt P11712); Cytochrome P450 2C19 (Homo sapiens, UniProt P33261); Cytochrome P450 2E1 (Homo sapiens, UniProt P05181); Cytochrome P450 2D6 (Homo sapiens, UniProt P10635).
The target in assay [1] is T1, C-X-C chemokine receptor type 1 (Homo sapiens, UniProt P25024). Further: in other assays of this panel Not Active means under 50% inhibition at 10 µM.
T1 sequence (P25024 whole entry): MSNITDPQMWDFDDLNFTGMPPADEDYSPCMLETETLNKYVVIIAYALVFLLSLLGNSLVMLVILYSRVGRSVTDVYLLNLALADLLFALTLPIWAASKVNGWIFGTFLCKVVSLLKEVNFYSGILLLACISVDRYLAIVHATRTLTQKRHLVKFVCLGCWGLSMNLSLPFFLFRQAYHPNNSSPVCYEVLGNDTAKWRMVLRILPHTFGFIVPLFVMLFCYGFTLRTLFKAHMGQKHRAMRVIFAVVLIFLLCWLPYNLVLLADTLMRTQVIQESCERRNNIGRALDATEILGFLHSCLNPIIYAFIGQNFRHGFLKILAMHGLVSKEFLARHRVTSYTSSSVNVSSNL

The target in assay [2] is Sodium-dependent noradrenaline transporter (Homo sapiens, UniProt P23975). Description: DRUGMATRIX: Norepinephrine Transporter radioligand binding (ligand: [125I] RTI-55). The assay is classed as cell membranes, MDCK, Membrane. The settings on record: mdck; Not Active = under 50% inhibition at 10 µM.
Chain of Sodium-dependent noradrenaline transporter (P23975 whole entry): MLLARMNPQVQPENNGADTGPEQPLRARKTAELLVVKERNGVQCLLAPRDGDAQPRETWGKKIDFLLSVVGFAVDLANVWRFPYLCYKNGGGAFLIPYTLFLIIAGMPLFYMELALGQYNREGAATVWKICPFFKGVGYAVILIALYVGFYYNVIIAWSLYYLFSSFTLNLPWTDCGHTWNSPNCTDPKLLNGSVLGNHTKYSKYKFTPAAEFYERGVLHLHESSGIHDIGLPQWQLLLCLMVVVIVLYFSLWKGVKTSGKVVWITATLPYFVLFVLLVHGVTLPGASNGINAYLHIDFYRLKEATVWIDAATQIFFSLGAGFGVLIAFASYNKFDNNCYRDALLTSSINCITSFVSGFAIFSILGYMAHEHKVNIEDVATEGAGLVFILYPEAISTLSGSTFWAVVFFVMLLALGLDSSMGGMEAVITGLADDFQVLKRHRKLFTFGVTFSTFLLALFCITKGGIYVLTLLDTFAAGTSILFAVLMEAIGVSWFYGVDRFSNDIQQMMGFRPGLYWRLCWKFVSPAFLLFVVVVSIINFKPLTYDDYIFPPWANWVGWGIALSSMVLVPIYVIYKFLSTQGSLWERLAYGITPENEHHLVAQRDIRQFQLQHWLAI
For assay [3], the target named is Sigma non-opioid intracellular receptor 1 (Homo sapiens, UniProt Q99720). Description: DRUGMATRIX: Sigma1 radioligand binding (ligand: [3H] Haloperidol). The class given is cell membranes, Jurkat, Membrane. The settings on record: jurkat; Not Active = under 50% inhibition at 10 µM.
Chain of Sigma non-opioid intracellular receptor 1 (Q99720 whole entry): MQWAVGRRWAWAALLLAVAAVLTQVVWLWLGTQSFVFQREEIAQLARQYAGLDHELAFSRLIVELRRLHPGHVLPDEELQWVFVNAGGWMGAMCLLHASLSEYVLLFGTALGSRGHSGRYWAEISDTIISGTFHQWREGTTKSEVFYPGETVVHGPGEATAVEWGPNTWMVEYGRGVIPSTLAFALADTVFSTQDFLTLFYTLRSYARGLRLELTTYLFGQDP
Another assay deals with T2, Androgen receptor (Rattus norvegicus, UniProt P15207).
T2 sequence (P15207 whole entry): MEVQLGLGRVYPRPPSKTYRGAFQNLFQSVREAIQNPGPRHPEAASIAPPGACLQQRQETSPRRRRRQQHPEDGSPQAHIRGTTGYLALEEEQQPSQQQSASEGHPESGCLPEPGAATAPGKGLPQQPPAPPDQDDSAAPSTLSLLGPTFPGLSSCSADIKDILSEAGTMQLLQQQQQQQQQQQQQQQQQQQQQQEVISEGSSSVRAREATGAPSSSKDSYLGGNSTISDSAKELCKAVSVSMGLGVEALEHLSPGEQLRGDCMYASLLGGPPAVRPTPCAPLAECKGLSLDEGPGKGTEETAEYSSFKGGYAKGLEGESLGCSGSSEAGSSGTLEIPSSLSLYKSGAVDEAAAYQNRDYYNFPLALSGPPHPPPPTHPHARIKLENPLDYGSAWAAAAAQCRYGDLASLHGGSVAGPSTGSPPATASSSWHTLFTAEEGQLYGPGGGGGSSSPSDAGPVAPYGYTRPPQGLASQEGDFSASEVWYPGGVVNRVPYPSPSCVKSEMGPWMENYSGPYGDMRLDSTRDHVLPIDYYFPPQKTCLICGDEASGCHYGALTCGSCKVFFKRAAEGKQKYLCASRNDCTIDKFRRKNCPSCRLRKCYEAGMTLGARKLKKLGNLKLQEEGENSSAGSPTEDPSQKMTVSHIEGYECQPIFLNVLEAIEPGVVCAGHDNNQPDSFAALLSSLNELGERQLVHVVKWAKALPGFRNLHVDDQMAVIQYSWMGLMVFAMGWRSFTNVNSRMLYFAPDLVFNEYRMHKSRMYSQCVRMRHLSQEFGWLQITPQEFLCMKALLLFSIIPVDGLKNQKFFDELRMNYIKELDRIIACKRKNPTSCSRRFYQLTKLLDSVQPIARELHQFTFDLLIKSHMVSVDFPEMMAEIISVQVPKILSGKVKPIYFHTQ

Chain of Cytochrome P450 2C9 (P11712 whole entry): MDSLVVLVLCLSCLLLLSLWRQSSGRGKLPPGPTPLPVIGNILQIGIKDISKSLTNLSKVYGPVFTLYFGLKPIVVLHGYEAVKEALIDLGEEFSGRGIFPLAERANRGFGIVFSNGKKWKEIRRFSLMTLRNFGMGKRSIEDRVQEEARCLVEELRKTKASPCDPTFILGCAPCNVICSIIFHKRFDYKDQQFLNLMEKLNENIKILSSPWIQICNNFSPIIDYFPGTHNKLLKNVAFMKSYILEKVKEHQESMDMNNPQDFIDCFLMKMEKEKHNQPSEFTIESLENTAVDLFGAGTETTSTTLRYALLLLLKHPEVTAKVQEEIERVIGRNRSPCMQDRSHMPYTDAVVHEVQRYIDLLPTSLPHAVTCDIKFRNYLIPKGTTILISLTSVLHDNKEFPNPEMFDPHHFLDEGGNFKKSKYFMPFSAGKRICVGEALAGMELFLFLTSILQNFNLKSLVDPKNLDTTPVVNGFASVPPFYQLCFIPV
Chain of Cytochrome P450 2C19 (P33261 whole entry): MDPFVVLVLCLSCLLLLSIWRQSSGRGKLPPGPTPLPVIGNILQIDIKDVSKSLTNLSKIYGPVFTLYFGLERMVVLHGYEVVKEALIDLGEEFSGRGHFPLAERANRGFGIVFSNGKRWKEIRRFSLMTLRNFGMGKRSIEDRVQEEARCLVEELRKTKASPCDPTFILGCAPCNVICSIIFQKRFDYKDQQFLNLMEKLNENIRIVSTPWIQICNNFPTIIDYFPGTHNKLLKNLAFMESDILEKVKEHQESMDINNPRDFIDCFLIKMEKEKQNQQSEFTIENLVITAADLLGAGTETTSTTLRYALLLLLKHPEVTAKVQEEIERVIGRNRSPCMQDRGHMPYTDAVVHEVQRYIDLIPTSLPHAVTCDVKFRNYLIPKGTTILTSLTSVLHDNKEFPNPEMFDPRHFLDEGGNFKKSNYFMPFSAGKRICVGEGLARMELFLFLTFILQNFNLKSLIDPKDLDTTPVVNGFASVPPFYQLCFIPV
Chain of Cytochrome P450 2E1 (P05181 whole entry): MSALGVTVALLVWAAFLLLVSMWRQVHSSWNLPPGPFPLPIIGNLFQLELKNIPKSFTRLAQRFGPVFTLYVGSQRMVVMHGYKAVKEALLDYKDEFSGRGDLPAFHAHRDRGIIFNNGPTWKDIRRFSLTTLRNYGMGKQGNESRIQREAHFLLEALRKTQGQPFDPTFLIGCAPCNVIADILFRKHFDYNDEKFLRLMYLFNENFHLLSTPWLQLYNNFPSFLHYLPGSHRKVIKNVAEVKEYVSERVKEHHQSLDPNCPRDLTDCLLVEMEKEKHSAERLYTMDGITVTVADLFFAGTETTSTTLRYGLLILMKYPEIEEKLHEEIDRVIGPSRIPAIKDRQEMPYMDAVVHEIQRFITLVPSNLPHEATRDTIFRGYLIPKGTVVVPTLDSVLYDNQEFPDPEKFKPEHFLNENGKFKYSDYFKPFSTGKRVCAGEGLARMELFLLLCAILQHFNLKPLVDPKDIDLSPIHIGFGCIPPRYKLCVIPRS
Chain of Cytochrome P450 2D6 (P10635 whole entry): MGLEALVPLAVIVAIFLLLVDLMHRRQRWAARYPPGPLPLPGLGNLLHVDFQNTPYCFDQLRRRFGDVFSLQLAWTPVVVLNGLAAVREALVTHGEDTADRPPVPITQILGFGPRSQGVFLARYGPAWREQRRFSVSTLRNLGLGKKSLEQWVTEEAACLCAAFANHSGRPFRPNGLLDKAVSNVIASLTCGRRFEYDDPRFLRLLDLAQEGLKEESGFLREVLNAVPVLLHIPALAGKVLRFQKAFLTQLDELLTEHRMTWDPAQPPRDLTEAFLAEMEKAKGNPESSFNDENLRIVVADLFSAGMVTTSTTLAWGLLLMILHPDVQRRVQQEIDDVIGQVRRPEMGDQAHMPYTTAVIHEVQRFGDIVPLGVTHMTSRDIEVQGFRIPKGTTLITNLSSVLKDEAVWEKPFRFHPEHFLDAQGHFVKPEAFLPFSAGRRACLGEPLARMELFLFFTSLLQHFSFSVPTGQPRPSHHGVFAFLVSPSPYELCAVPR

`O=C(c1ccccc1F)N1CCC(Cc2ccccc2)CC1`: the IC50 (usually the concentration at which inhibition is half-maximal) against Cytochrome P450 2C9 was 2000 nM; in assay [1] it was “Not Active”; in assay [2], “Not Active”; in assay [3], “Not Active”; at Cytochrome P450 2C19 it was 500 nM; against Androgen receptor, “Not Active”.
Consider `ClC(Cl)(Cl)Cl` [CARBON TETRACHLORIDE], for which the half-maximal inhibitory concentration (IC50) entry is “Not Active” in assay [1], “Not Active” in assay [2], “Not Active” in assay [3] and 11000 nM at Cytochrome P450 2E1.
As to `NNCCc1ccccc1` [PHENELZINE], the IC50 on Cytochrome P450 2C9 is 4000 nM; against Cytochrome P450 2D6, 1000 nM; in assay [1], “Not Active”; in assay [2] it was “Not Active”; in assay [3], “Not Active”; against Cytochrome P450 2C19, 800 nM.
